According to US8841233B2, “Herbicidal compositions comprising 4-amino-3-chloro-5-fluoro-6-(4-chloro-2-fluoro-3-methoxyphenyl) pyridine-2-carboxylic acid or a derivative thereof and 4-hydroxyphenyl-pyruvate dioxygenase (HPPD) inhibitors” (Dow Agrosciences LLC, priority 2012, dated 2014):

Legend:
IPOHE = assay: Pre-emergence soil-applied weed control, greenhouse (Example III); format: in vivo, Ipomoea hederacea (L.) Jacq.
From the text: Evaluation of Pre-emergence Soil-Applied Herbicidal Mixtures for Weed Control
Seeds or nutlets of the desired test plant species were planted in a soil matrix prepared by mixing a loam soil (32 percent silt, 23 percent clay, and 45 percent sand, with a pH of about 6.5 and an organic matter content of about 1.9 percent) and calcareous grit in an 80 to 20 ratio. The soil matrix was contained in plastic pots with a volume of 1 quart and a surface area of 83.6 square centimeters (cm^2).
Treatments consisted of the benzyl ester of 4-amino-3-chloro-5-fluoro-6-(4-chloro-2-fluoro-3-methoxy-phenyl)pyridine-2-carboxylic acid (compound A) formulated as an SC (suspension concentrate) and various herbicidal components alone and in combination. Forms of compound A were applied on an acid equivalent basis.
Other herbicidal components were applied on an acid equivalent or active ingredient basis and included the 4-hydroxyphenyl pyruvate dioxygenase (HPPD)-inhibiting herbicide, isoxaflutole, formulated as Balance Pro®.
(§1) Treatment requirements were calculated based upon the rates being tested, the concentration of active ingredient or acid equivalent in the formulation, and a 12 mL application volume at a rate of 187 L/ha.
For treatments comprised of formulated compounds, measured amounts of compounds were placed individually in 25 mL glass vials and diluted in a volume of 1.25% (v/v) Agri-Dex® crop oil concentrate (COC) to obtain 12× stock solutions. […] Application solutions were prepared by adding an appropriate amount of each stock solution (e.g., 1 mL) and diluted to the appropriate final concentrations with the addition of 10 mL of an aqueous mixture of 1.25% (v/v) COC so that the final spray solutions contained 1.25% (v/v) COC.
All stock solutions and applications solutions were visually inspected for compound compatibility prior to application. Spray solutions were applied to the soil with an overhead Mandel track sprayer equipped with a 8002E nozzles calibrated to deliver 187 L/ha over an application area of 0.503 m^2 at a spray height of 18 inches (46 cm) above average pot height. Control pots were sprayed in the same manner with the solvent blank.
The treated and control pots were placed in a greenhouse and top watered as needed. When required to ensure good germination and healthy plants, a fungicide treatment and/or other chemical or physical treatment was applied. […] After approximately 4 weeks, the condition of the test plants as compared with that of the untreated plants was determined visually and scored on a scale of 0 to 100 percent where 0 corresponds to no injury or growth inhibition and 100 corresponds to complete kill. […]

LEFCH = assay: Post-emergence foliar-applied weed control, greenhouse (Example I); format: in vivo, Leptochloa chinensis (L.) Nees
From the text: Evaluation of Post-emergence Foliar-Applied Herbicidal Mixtures for Weed Control in Direct Seeded Rice
Seeds or nutlets of the desired test plant species were planted in a soil matrix prepared by mixing a loam or sandy loam soil (e.g., 28.6 percent silt, 18.8 percent clay, and 52.6 percent sand, with a pH of about 5.8 and an organic matter content of about 1.8 percent) and calcareous grit in an 80 to 20 ratio. The soil matrix was contained in plastic pots with a volume of 1 quart and a surface area of 83.6 square centimeters (cm^2). When required to ensure good germination and healthy plants, a fungicide treatment and/or other chemical or physical treatment was applied. The plants were grown for 8-22 days in a greenhouse with an approximate 14 h photoperiod which was maintained at about 29° C. during the day and 26° C. during the night. Nutrients (Peters Excel® 15-5-15 5-Ca 2-Mg and iron chelate) were applied in the irrigation solution as needed and water was added on a regular basis. Supplemental lighting was provided with overhead metal halide 1000-Watt lamps as necessary. The plants were employed for testing when they reached the first through fourth true leaf stage. […]
as §1
For treatments comprised of formulated compounds, measured amounts of compounds were placed individually in 25 mL glass vials and diluted in a volume of 1.25% (v/v) Agri-Dex® crop oil concentrated to obtain 12× stock solutions. […]
For treatments comprised of formulated and technical compounds, weighed amounts of the technical materials were placed individually in 25 mL glass vials and dissolved in a volume of 97:3 v/v acetone/DMSO to obtain 12× stock solutions, and measured amounts of the formulated compounds were placed individually in 25 mL glass vials and diluted in a volume of 1.5% (v/v) crop oil concentrate or water to obtain 12× stock solutions. […]

| Structure (SMILES) | Visual Weed Control (%) - 32 DAA IPOHE Obs (IPOHE; 8 gae/ha) [%] | Visual Weed Control (%) - 32 DAA IPOHE Obs (IPOHE; 16 gae/ha) [%] | Visual Weed Control (%) - 32 DAA IPOHE Obs (IPOHE; 32 gae/ha) [%] | Visual Weed Control (%) - 21 DAA LEFCH Obs (LEFCH; 17.5 gae/ha) [%] | Visual Weed Control (%) - 21 DAA LEFCH Obs (LEFCH; 35 gae/ha) [%] |
| --- | --- | --- | --- | --- | --- |
| COc1c(Cl)ccc(-c2nc(C(=O)OCc3ccccc3)c(Cl)c(N)c2F)c1F [Compound A Benzyl Ester, benzyl ester of 4-amino-3-chloro-5-fluoro-6-(4-chloro-2-fluoro-3-methoxy-phenyl)pyridine-2-carboxylic acid] | 5 | 10 | 10 |  |  |
| COc1c(Cl)ccc(-c2nc(C(=O)O)c(Cl)c(N)c2F)c1F [Compound A Acid, 4-amino-3-chloro-6-(4-chloro-2-fluoro-3-methoxyphenyl)-5-fluoropyridine-2-carboxylic acid] |  |  |  | 10 | 60 |
